From US20250145589A1, “PYRIDINE DERIVATIVE AND USE THEREOF” (SICHUAN HUIYU PHARMACEUTICAL CO., LTD., priority 2021, published 2025) come the findings set out here.

Read-outs that look alike come from different tables or passages of the source.

One assay concerns the target PI3Kα (Homo sapiens (Human), UniProt P42336). In words: Inhibition of PI3Kα efficacy assay (ADP-Glo kinase assay). In kind it is biochemical. As to conditions: read-out: PI3Kα inhibitory activity (IC50). As to the method:
Inhibition of PI3Kα Efficacy assay The ADP-Glo™ kinase assay was used to assess the inhibition of PI3Kα with our compounds. The utilized proteins and assay reagents were obtained from the ADP-Glo™ Kinase Assay Kit (Promega). Initially, a 2 mM stock solution of the test compound (dissolved in DMSO) was serially diluted in five-fold concentrations using DMSO to obtain eight working solutions 1 (200′). […] Subsequently, 2 μL of 2.5×PI and ATP solution mixture were added to each well, mixed, and incubated at RT for 60 minutes. Then, 5 μL of ADP-Glo (containing 10 mM MgCl2) reagent was added to each well, mixed, and incubated at RT for 40 minutes. Finally, 10 μL of the Kinase Detection Reagent was added to each well, mixed, and incubated at RT for 40 minutes. […] Data were analyzed using GraphPad Prism with log(inhibitor) vs. response—Variable Slope(four parameters) fitting calculations for […]. (Note: The negative control refers to the group without inhibitor, and the blank control refers to the group without enzyme.) The data were presented in Tables 1 to 4.

The test system of assay [1] is NCI-H358 cells (KRAS G12C mutant). Put plainly: NCI-H358 cell proliferation inhibition (CellTiter-Glo). The format is cell-based. As to conditions: Homo sapiens, NCI-H358, 72 h; H358 cells (G12C mutation), 3 days, Table 6; read-out: NCI-H358 (IC50). On the procedure:
The CellTiter-Glo®, assay was used to detect the number of viable cells, in order to evaluate the anti-proliferation efficacy of compounds. […] The compounds were serially diluted 5-fold in DMSO to obtain 8 concentrations, and then further diluted with RPMI-640 (10% FBS) cell culture medium to obtain the working solutions (5′), 20 μL of each working solution was added to the cell culture supernatant in each well, and the plate was further incubated for 3 days at 37° C. with 5% CO2. The plate was then equilibrated with CellTiter-Glo® reagent at room temperature (25° C.) for 10-30 minutes. After aspirating 50 μL of the medium, 50 μL of CellTiter-Glo® reagent was added. The cells were thoroughly mixed with the CellTiter-Glo® reagent using a microplate shaker for 2 minutes, and then incubated at room temperature for 10 minutes. The 96-well plate was placed in a multi-mode microplate reader to record the luminescence values (RLU). The inhibition rate was calculated through the following equation: [formula] Data were analyzed using GraphPad Prism for IC50 values (Note: The negative control refers to the group without inhibitor).

Chain of PI3Kα (P42336 whole entry): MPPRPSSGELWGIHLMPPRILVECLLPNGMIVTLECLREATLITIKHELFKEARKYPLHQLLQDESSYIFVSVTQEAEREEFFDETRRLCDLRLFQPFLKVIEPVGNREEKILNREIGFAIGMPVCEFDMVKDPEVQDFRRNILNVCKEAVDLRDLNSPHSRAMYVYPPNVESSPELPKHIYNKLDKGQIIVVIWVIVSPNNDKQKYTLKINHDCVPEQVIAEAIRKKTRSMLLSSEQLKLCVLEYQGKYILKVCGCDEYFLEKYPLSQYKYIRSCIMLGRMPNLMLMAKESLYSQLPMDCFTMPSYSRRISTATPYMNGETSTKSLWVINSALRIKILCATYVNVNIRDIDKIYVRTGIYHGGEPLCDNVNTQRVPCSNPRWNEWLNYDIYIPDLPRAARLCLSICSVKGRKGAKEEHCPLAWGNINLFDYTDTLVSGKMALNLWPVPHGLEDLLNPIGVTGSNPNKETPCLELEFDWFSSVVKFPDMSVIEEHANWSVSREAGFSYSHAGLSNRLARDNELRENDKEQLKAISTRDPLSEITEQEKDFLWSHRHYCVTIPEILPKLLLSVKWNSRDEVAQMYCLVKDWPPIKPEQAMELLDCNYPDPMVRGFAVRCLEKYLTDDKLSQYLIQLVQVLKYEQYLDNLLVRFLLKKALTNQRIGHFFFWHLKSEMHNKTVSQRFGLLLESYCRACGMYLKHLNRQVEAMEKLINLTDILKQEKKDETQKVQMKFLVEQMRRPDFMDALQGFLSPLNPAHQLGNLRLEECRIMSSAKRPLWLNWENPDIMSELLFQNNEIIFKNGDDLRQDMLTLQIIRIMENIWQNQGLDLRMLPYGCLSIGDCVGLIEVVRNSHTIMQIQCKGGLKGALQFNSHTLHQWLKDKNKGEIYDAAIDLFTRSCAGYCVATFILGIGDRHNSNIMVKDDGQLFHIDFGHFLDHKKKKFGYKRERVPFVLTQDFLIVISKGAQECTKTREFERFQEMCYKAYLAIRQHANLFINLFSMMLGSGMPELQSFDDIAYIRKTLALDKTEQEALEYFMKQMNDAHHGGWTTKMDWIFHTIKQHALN
Chain of PI3Kα (P27986 whole entry partner): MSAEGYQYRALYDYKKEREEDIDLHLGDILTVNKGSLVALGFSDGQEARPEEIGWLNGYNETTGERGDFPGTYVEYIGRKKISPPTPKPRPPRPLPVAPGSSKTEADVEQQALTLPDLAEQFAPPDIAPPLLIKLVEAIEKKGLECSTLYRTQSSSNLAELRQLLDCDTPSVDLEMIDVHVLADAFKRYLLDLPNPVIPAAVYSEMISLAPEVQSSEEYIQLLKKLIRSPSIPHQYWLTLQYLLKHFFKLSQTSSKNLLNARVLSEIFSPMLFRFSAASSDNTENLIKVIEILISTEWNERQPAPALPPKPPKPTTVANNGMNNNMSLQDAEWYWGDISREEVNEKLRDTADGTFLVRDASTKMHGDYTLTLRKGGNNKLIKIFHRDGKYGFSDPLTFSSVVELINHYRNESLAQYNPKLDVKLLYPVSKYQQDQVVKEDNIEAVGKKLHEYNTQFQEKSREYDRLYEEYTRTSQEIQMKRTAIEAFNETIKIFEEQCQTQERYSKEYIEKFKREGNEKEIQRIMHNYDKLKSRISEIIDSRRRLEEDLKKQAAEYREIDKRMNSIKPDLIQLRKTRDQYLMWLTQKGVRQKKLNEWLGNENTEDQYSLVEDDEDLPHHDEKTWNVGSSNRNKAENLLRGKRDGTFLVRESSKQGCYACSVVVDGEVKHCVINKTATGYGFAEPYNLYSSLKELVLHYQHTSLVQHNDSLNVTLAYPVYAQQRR

In the case of `C=C(F)C(=O)N1C[C@H](C)N(c2ncnc3ccc(-c4cnc(OC)c(NS(=O)(=O)c5c(F)cccc5F)c4)cc23)C[C@H]1C` [Example 52, 2,6-difluoro-N-(5-(4-((2S,5R)-4-(2-fluoroacryloyl)-2.5-dimethylpiperazin-1-yl)quinazolin-6-yl)-2-methoxypyridin-3-yl) benzenesulfonamide], the half-maximal inhibitory concentration (IC50) on PI3Kα (Table 2) was 0.0091 µM.

As to `COc1ncc(-c2ccc3ncnc(N4CCC5(CN(C(=O)/C=C/C(C)=O)C5)C4)c3c2)cc1N(C)S(=O)(=O)c1ccc(F)cc1F` [Example 81, (E)-2,4-difluoro-N-(2-methoxy-5-(4-(2-(4-oxopent-2-enoyl)-2,6-diazaspiro[3.4]octan-6-yl)quinazolin-6-yl)pyridin-3-yl)-N-methylbenzenesulfonamide], the IC50 in assay [1] stood at 1.09 µM.

As for `[2H]C([2H])([2H])n1cc(-c2ccc3ncnc(N4CCN(C(=O)/C=C/C(C)=O)CC4)c3c2)cc(NS(=O)(=O)c2ccc(F)cc2F)c1=O` [Example 244, (E)-2,4-difluoro-N-(1-(methyl-d3)-2-oxo-5-(4-(4-(4-oxopent-2-enoyl)piperazin-1-yl)quinazolin-6-yl)-1,2-dihydropyridin-3-yl)benzenesulfonamide], at PI3Kα (Table 4), the IC50 is 0.27 µM.

Take `CC(=O)/C=C/C(=O)N1CCN(c2ncnc3ccc(-c4cnc(CO)c(NS(=O)(=O)c5ccc(F)cc5F)c4)cc23)CC1` [Example 183, (E)-2,4-difluoro-N-(2-(hydroxy-methyl)-5-(4-(4-(4-oxopent-2-enoyl)piperazin-1-yl)quinazolin-6-yl)pyridin-3-yl)benzene-sulfonamide]: the IC50 at PI3Kα (Table 4) came to 0.0053 µM.

On to `CCCC(=O)/C=C/C(=O)N1CCN(c2ncnc3ccc(-c4cnc(OC)c(N(C)S(=O)(=O)c5ccc(F)cc5F)c4)cc23)CC1` [Example 80, (E)-2,4-difluoro-N-(2-methoxy-5-(4-(4-(4-oxohept-2-enoyl)piperazin-1-yl)quinazolin-6-yl)pyridin-3-yl)-N-methylbenzenesulfonamide], for which, in assay [1], the IC50 turned out to be 0.784 µM.

`COc1c(F)cc(-c2ccc3ncnc(N4CCN(C(=O)/C=C/C(C)=O)CC4)c3c2)cc1NS(=O)(=O)c1ccc(F)cn1` [Example 121, (E)-5-fluoro-N-(3-fluoro-2-methoxy-5-(4-(4-(4-oxopent-2-enoyl)piperazin-1-yl)quinazolin-6-yl)phenyl)pyridine-2-sulfonamide]: at PI3Kα (Table 2), the IC50 worked out at 0.111 µM.

Take `C=CC(=O)N1CCN(c2nc(C)nc3ccc(-c4cnc(OC)c(NS(=O)(=O)c5ccc(F)cc5F)c4)cc23)CC1` [Example 29, N-(5-(4-(4-acryloylpiperazin-1-yl)-2-methylquinazolin-6-yl)-2-methoxypyridin-3-yl)-2,4-difluorobenzenesulfonamide]: the half-maximal inhibitory concentration (IC50) on PI3Kα (Table 1) stood at 0.0413 µM.

Consider `COc1ncc(-c2ccc3ncnc(N4CCN(C(=O)/C=C/C(C)=O)CC4)c3c2)cc1NS(=O)(=O)c1ccc(C(=O)O)cc1F` [Example 209, (E)-3-fluoro-4-(N-(2-methoxy-5-(4-(4-(4-oxopent-2-enoyl)piperazin-1-yl)quinazolin-6-yl)pyridin-3-yl)sulfamoyl)benzoic acid], for which the half-inhibitory concentration (IC50) at PI3Kα (Table 4) was 0.00057 µM.

On to `C=CC(=O)N1CCN(c2nc(OC[C@@H]3CCCN3C)nc3ccc(-c4cnc(OC)c(NS(=O)(=O)c5ccc(F)cc5F)c4)cc23)C[C@@H]1CC#N` [Example 5, N-(5-(4-((S)-4-acryloyl-3-(cyanomethyl)piperazin-1-yl)-2-(((S)-1-methylpyrrolidin-2-yl)methoxy)quinazolin-6-yl)-2-methoxypyridin-3-yl)-2,4-difluorobenzenesulfonamide], for which, in assay [1], the IC50 came to 5.39 µM.

As to `COc1ncc(-c2ccc3ncnc(N4CCN(C(=O)c5cccc(O)c5)CC4)c3c2)cc1NS(=O)(=O)c1ccc(F)cc1F` [Example 69, 2,4-difluoro-N-(5-(4-(4-(3-hydroxy-benzoyl)piperazin-1-yl)quinazolin-6-yl)-2-methoxy-pyridin-3-yl) benzene-sulfonamide], in assay [1], the IC50 came out at 0.0607 µM.
